The results in this text go back to patent publication US9963518B2, “Cyclic oligosaccharides for use in the treatment and prevention of bacterial infection” (priority 2011, dated 2018).

One assay has as its target WT Wza (Escherichia coli, UniProt Q9X4B7). As to the kind of experiment: Single-channel electrical recording, blockers against wt-Wza in planar lipid bilayers. Format: binding, E. coli. The note with it: for Interaction with WT Wza: 2M KCl, 5 mM HEPES, 100 μM EDTA, 200 μM DTT, pH 7.5. The procedure:
The Wt Wza transporter was tested in single-channel recording, in accordance with the procedures of Naismith (Nature 2006, 444, 226-229) for its ability to form pores in planar lipid bilayers. Sequential insertions of channels in a single orientation were used to measure the conductance of a single channel because more than one channel could insert simultaneously during the first introduction, especially when protein molecules have not properly diffused yet. Repetition of experiments helped to verify conductance of a single channel. […] After collection of 37 insertions of wt Wza channel, the current of a single channel of wt Wza in 2 M KCl buffer was determined to be 1.89±0.01 pA (n=37) on average, corresponding to 18.9±0.1 pS (n=37) in conductance.
(§1) Thirteen commercial cyclodextrins (CDs) were tested for their ability to block WT-Wza and the mutant Y110G/K375C (Table 1) including, neutral, negatively charged or positively charged cyclodextrins. Testing was carried out using electrical channel recording in high salt buffer (2M KCl, 5 mM HEPES, 100 μM EDTA, 200 μM DTT) at pH 7.5.

In the next assay the test system is E. coli strain E69. Description: LPS exposure assay, O9a LPS to O9a LPS-specific antibodies (FACS). In kind it is cell-based. The note with it: 1 mM, antiserum incubation 1 h; for LPS exposure by median fluorescence intensity: relative to CWG281 positive control. The procedure:
The direct effect of the inhibition of K30 CPS transport on E. coli strain E69 is the appearance of defects in the capsule layer. This should in turn lead to exposure of O9a LPS at the cell surface. To test this hypothesis, the attachment of rabbit anti-O9a antibodies was quantified by flow cytometry (FACS), by using secondary fluorescent anti-rabbit antibodies. The design of the experiment is depicted schematically in FIG. 4a.
E. coli strains E69 and CWG281 were grown as described above in Example 4 and the OD600 was adjusted to 0.4. The concentrations of cyclodextrin (either am8γCD (compound 13), am6αCD (compound 3) or am7βCD (compound 10)) present in the growth media were 10 nM, 100 nM, 1 μM, 10 μM, 50 μM, 100 μM and 1 mM. 50 μL samples of each were centrifuged at 3,000×g for 10 min to remove the medium, washed with PBS and resuspended in 50 μL PBS. O9a antiserum (0.5 μL) was then added. The mixtures were incubated on ice for 1 h (to compare the effects of am6αCD, am7βCD and am8γCD on the exposure of LPS) or 2 h (for the estimation of minimum effective concentration of am8γCD required to expose LPS to antibodies), followed by centrifugation at 3,000×g for 10 min and washing with PBS. The pellets were resuspended in PBS (50 μL), to which Alexa Fluor 488 Goat Anti-Rabbit IgG secondary antibody (1 μL, Life Technologies, A11034, λex 495 nm, λem 519 nm) was added, followed by incubation for 1 h on ice. The cells were then centrifuged at 3,000×g for 10 min. The pellets were resuspended in PBS (1 mL), followed by analysis by flow cytometry (FACS) using a Becton-Dickinson FACSCalibur. 10,000 cells were analysed for each sample. Fluorescence was measured in the FL1 channel (530 nm).

Another assay addresses Wza Y110G/K375C (Escherichia coli, UniProt Q9X4B7, K375C/Y110G). Description: Single-channel electrical recording, blockers against mutant Wza Y110G/K375C. In kind it is binding, E. coli. The note with it: Y110G/K375C; for Kd: n = 3, 2M KCl buffer pH 7.5. As to the method: The Wza pore was opened by replacing the tyrosines at position 110 that line the narrowest region of the lumen with glycine. To confirm that the currents observed indeed arose from the mutant pore, a cysteine was introduced in the α-helix barrel (Y110G/K375C) and would therefore yield a characteristic reversible blockade when derivatized with a suitable thiol-specific reagent.
The unitary conductance of the Y110G/K375C pore was determined as for wt-Wza, by measuring stepwise-insertion using the same technique referenced above. The mean open current of Y110G/K375C was determined to be +85±14.1 pA (+50 mV, n=31), corresponding to 1.70±0.28 nS (+50 mV, n=31) in conductance.
as §1

Each structure is given as a SMILES string. Read-outs that look alike come from different tables or passages of the source.

Consider `NCC1OC2OC3C(CN)OC(OC4C(CN)OC(OC5C(CN)OC(OC6C(CN)OC(OC7C(CN)OC(OC1C(O)C2O)C(O)C7O)C(O)C6O)C(O)C5O)C(O)C4O)C(O)C3O` (stereo not drawn) [No. 3, hexakis (6-amino-6-deoxy)-α-cyclodextrin], for which the “Interaction with WT Wza” value at WT Wza is given as “not observed”. In addition, in the assay on E. coli strain E69, the “LPS exposure by percentage of labelled cells” value is on record as 36% and the “LPS exposure by median fluorescence intensity” value amounted to 3.2%.
`NC[C@H]1O[C@@H]2O[C@H]3[C@H](O)[C@@H](O)[C@@H](O[C@H]4[C@H](O)[C@@H](O)[C@@H](O[C@H]5[C@H](O)[C@@H](O)[C@@H](O[C@H]6[C@H](O)[C@@H](O)[C@@H](O[C@H]7[C@H](O)[C@@H](O)[C@@H](O[C@H]8[C@H](O)[C@@H](O)[C@@H](O[C@H]1[C@H](O)[C@H]2O)O[C@@H]8CN)O[C@@H]7CN)O[C@@H]6CN)O[C@@H]5CN)O[C@@H]4CN)O[C@@H]3CN` [No. 4, heptakis (6-amino-6-deoxy)-β-cyclodextrin]: the “Interaction with WT Wza” value at WT Wza was “not observed”. Besides, in the assay on E. coli strain E69, the “LPS exposure by percentage of labelled cells” value is reported as 9% and the “LPS exposure by median fluorescence intensity” value is 1.8%. Moreover, the “Interaction with mutant Wza” value on Wza Y110G/K375C (2M KCl, 5 mM HEPES, 100 μM EDTA, 200 μM DTT, pH 7.5) is given as “not observed^b”. For the same molecule, the Kd on Wza Y110G/K375C (+3 mV, read-out: Kd, interaction with mutant Wza) amounted to 2.9 ± 1.8 mM.
As to `NC[C@H]1O[C@@H]2O[C@H]3[C@H](O)[C@@H](O)[C@@H](O[C@H]4[C@H](O)[C@@H](O)[C@@H](O[C@H]5[C@H](O)[C@@H](O)[C@@H](O[C@H]6[C@H](O)[C@@H](O)[C@@H](O[C@H]7[C@H](O)[C@@H](O)[C@@H](O[C@H]8[C@H](O)[C@@H](O)[C@@H](O[C@H]1[C@H](O)[C@H]2O)O[C@@H]8CN)O[C@@H]7CN)O[C@@H]6CN)O[C@@H]5CN)O[C@@H]4CN)O[C@@H]3CN` [compound 4], the Kd at WT Wza came out at 13 mM; at Wza Y110G/K375C (Kd, interaction with mutant Wza, +3 mV) it was 2.9 mM; at Wza Y110G/K375C (Kd, interaction with mutant Wza, +75 mV), 2.1 mM.
